Patent US6482805B2 (Parker Hughes Institute, priority 1998, dated 2002)

System: sperm acrosome
Assay: Sperm acrosome and membrane integrity by FITC-lectin staining, confocal, SEM and TEM (Example 4)
Type: cell-based, human
Conditions: for acrosome status by confocal microscopy (FITC-lectin) / acrosome-intact sperm: 100 μM; for acrosome status by confocal microscopy (FITC-lectin) / sperm head membranes by transmission electron microscopy / acrosome-intact sperm: 3 hours; for sperm head topography by scanning electron microscopy: 100 μM WHI compounds or 10 μM Cal A23187, 3 hours; for acrosome-intact sperm: method counts percentages of sperm with intact acrosome
Experimental: The percentages of sperm with an intact acrosome were evaluated by fluorescence microscopy (Olympus BX-60) following fixation and ethanol permeabilization of the sperm pellets and subsequent staining with fluorescein (FITC)-conjugated Pisum sativum lectin (Sigma). In positive control sperm, the acrosome reaction was induced by incubating (3 hours at 37° C.) the sperm suspension with 10 μm calcium ionophore (Cal) A23187 (Sigma). […] The percentage of sperm positive for PI were determined by flow cytometry using a FACS Vantage flow cytometer (Becton Dickinson and Co., Mountain View, Calif.). The sperm in the swim-up fractions were identified by their characteristic forward and 90° angle light scattering properties [O. J. D'Cruz and G. G. Haas, Jr. Fertil. Steril. 58, 633 (1992)]. All analyses were done using the 488-nm excitation from an krypton/argon laser with a 635-nm band pass filter for PI emission. The percentage of sperm positive for PI staining were determined using cutoff signals for membrane-intact motile sperm.
Ethanol permeabilized and air-dried sperm smears were stained sequentially with the three fluorescent markers, FITC-Pisum sativum, TOTO-3 iodide, and Nile red, each marking a different target (acrosome, nucleus, and plasma membrane of permeabilized sperm respectively). Samples were examined under a BioRad MRC-1024 Laser Scanning Confocal Microscope (BioRad Laboratories, Hercules, Calif.) equipped with a krypton/argon mixed gas laser (excitation lines 488, 568, and 647 nm) and mounted on a Nikon Eclipse E800 series upright microscope. The fluorescence emission of fluorescein, TOTO-3 iodide, and Nile red from the acrosomal region, nucleus, and the plasma membrane of sperm after ethanol permeabilization were simultaneously detected using the 598/40 nm, 522 DF32, and 680 DF32 emission/filter respectively. Confocal images were obtained using a Nikon 60× (NA 1.35) objective lens and Kalman collection filter. Digitized images were processed with the Adobe Photoshop software (Adobe Systems, Mountain View, Calif.). Final images were printed using a Fujix Pictography 3000 (Fuji Photo Film Co., Tokyo, Japan) color printer.
High-resolution low-voltage scanning electron microscopy was utilized for topographical imaging of different membrane domains over the sperm head as described [M. H. Stoffel et al. Molecular. Reprod. Develop. 34, 175 (1993); S. L. Erlandsen et al. Scanning 11, 169 (1989)]. […] Washed sperm suspensions were placed on 0.1% poly-L-lysine-coated glass chips and allowed to adhere to the glass over a 60 minute incubation period on ice. The supernatants were decanted, and adherent cells were fixed in 1% paraformaldehyde and 1% glutaraldehyde in 0.14 M sodium cacodylate buffer for 3 hours. To preserve plasma membrane integrity, sperm were post-fixed in 1% osmium tetroxide (OSO4) containing 0.1% ruthenium red in 0.14 M cacodylate buffer for 1 hour at 4° C. All samples were dehydrated through an ascending ethanol series, critical point dried, and coated with approximately 2 nm of platinum using ion beam sputtering with argon (4 mA at 10 ke V; Ion Tech Ltd., Middlesex, England). All samples were examined in a Hitachi S-900 SEM at an accelerating voltage of 2 keV. Sperm were observed under low magnification (×2,000-5000) and representative sperm were photographed under intermediate magnification (×18,000-25,000). In each specimen evaluated, at least 200 sperm were scanned for the intactness of sperm acrosomal region.
For transmission electron microscopy, treated sperm were fixed in 3% glutaraldehyde in 5% sucrose in 0.2 M cacodylate buffer for 3 hours at room temperature. The samples were post-fixed in 1% OSO4, 5% sucrose and 0.1% ruthenium red for 2 hours at 4° C. The samples were dehydrated in ascending ethanol series, and embedded in Spurr's epoxy. Thin sections (90 nm) were prepared on a Reichert-Jung Ultracut E and stained with uranyl acetate and lead citrate.

| Molecule | acrosome status by confocal microscopy (FITC-lectin) | sperm head topography by scanning electron microscopy | sperm head membranes by transmission electron microscopy | acrosome-intact sperm |
| --- | --- | --- | --- | --- |
| CCCCCCCCCc1ccc(OCCOCCOCCOCCOCCOCCOCCOCCOCCO)cc1 [Compound N-9, nonoxynol-9, reference compound] | only acrosome-reacted sperm |  |  |  |
| COC(=O)C(C)NP(=O)(OCC1OC(N2C(=O)NC(=O)C(C)(Br)C2OC)CC1N=[N+]=[N-])Oc1ccc(Br)cc1 (stereo not drawn) [WHI-07, 5-Bromo-6-methoxy-5,6-dihydro-3′-azidothymidine-5′-(p-Bromophenyl Methoxyalaninyl Phosphate)] | uniform, bright green fluorescence | mild acrosomal membrane ruffling | intactness of the plasma membrane, outer, and inner acrosomal membranes | 93.0±5.6 |
| 5-bromo-6-methoxy-5,6-dihydro-3 ′-azidothymidine-5 ′-(p-methoxyphenyl) methoxyalaninyl phosphate [WHI-05] | uniform, bright green fluorescence | intact acrosomes | intactness of the plasma membrane, outer, and inner acrosomal membranes | 97.0±2.0 |
